Laboratory results taken from US8658646B2, “Pyrrolopyrazine kinase inhibitors” (Hoffmann-LaRoche Inc., priority 2011, dated 2014).
pIC50: −log10 of the molar value.

The compounds below were run against T1, JAK3: Recombinant human kinase domain (Homo sapiens, UniProt P52333) (assay: Determination of IC50 of Janus Kinase (JAK) inhibition, radioactive end-point 33P-ATP assay, JAK3). Conditions: ATP 1.5 uM, peptide 50 uM, 20 minutes, read-out: JAK3-INHIB-DR/v1~NO ADDITIVE~Enzyme_Conc = 100.
T1 construct: JAK3: Recombinant human kinase domain from Millipore (Cat #14-629) or prepared; purchased Millipore 14-629
T1 sequence (P52333 822-1111 limits assumed): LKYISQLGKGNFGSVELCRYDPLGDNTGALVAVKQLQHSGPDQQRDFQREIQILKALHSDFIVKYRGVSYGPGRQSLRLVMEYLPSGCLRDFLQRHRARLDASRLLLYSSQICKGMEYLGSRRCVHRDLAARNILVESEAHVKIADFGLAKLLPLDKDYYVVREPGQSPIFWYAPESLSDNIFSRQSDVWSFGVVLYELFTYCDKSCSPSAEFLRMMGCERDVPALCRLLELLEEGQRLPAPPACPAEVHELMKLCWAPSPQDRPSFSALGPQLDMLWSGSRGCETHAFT
Format: biochemical

Row | pIC50 | SMILES
1 | 7.56 | Cn1nc(-c2cnc3[nH]cc(C(=O)N[C@@H]4CCN(CC#N)C4)c3n2)c2ccc(F)cc21 [Example I-214, 2-(6-Fluoro-1-methyl-1H-indazol-3-yl)-5H-pyrrolo[2,3-b]pyrazine-7-carboxylic acid ((R)-1-cyanomethyl-pyrrolidin-3-yl)-amide]
2 | 8.52 | C[C@@H](COCC#N)NC(=O)c1c[nH]c2ncc(-c3nn(C)c4cc(F)ccc34)nc12 [Example I-219, 2-(6-Fluoro-1-methyl-1H-indazol-3-yl)-5H-pyrrolo[2,3-b]pyrazine-7-carboxylic acid ((S)-2-cyanomethoxy-1-methyl-ethyl)-amide]
3 | 7.24 | C[C@@H](NC(=O)c1c[nH]c2ncc(-c3nn(C)c4cc(Cl)cc(Cl)c34)nc12)C(=O)N1CC(C#N)C1 [Example I-97, 2-(4,6-Dichloro-1-methyl-1H-indazol-3-yl)-5H-pyrrolo[2,3-b]pyrazine-7-carboxylic acid [(R)-2-(3-cyano-azetidin-1-yl)-1-methyl-2-oxo-ethyl]-amide]
4 | 8.45 | C[C@@H](NC(=O)c1c[nH]c2ncc(-c3nn(CCc4ccccn4)c4cc(Cl)ccc34)nc12)C(=O)N1CC(C#N)C1 [Example I-232, 2-[6-Chloro-1-(2-pyridin-2-yl-ethyl)-1H-indazol-3-yl]-5H-pyrrolo[2,3-b]pyrazine-7-carboxylic acid [(R)-2-(3-cyano-azetidin-1-yl)-1-methyl-2-oxo-ethyl)-amide]

Continued, compound first:

Row | SMILES | pIC50
5 | C[C@@H](NC(=O)c1c[nH]c2ncc(-c3n[nH]c4cc(Cl)ccc34)nc12)C(=O)N1CC(C#N)C1 [Example I-23, 2-(6-Chloro-1H-indazol-3-yl)-5H-pyrrolo[2,3-b]pyrazine-7-carboxylic acid [(R)-2-(3-cyano-azetidin-1-yl)-1-methyl-2-oxo-ethyl]-amide] | 9.23
6 | C[C@@H](NC(=O)c1c[nH]c2ncc(-c3nn(C)c4c3CCC(C)(C)C4)nc12)C(=O)N1CC(C#N)C1 [Example I-70, 2-(1,6,6-Trimethyl-4,5,6,7-tetrahydro-1H-indazol-3-yl)-5H-pyrrolo[2,3-b]pyrazine-7-carboxylic acid [(R)-2-(3-cyano-azetidin-1-yl)-1-methyl-2-oxo-ethyl]-amide] | 7.53
7 | CC(NC(=O)c1c[nH]c2ncc(-c3nn(C)c4cc(F)ccc34)nc12)[C@H]1C[C@@H](C#N)C1 (stereo partly drawn) [Example I-76, 2-(6-Fluoro-1-methyl-1H-indazol-3-yl)-5H-pyrrolo[2,3-b]pyrazine-7-carboxylic acid [1-(cis-3-cyano-cyclobutyl)-ethyl]-amide] | 7.90
8 | C[C@@H](NC(=O)c1c[nH]c2ncc(-c3nn(C)c4cc(Cl)ccc34)nc12)C(C)(C)O [Example I-12, 2-(6-Chloro-1-methyl-1H-indazol-3-yl)-5H-pyrrolo[2,3-b]pyrazine-7-carboxylic acid ((R)-2-hydroxy-1,2-dimethyl-propyl)-amide] | 7.72
9 | C[C@@H](NC(=O)c1c[nH]c2ncc(-c3nn(C)c4cc(C(F)(F)F)ccc34)nc12)C(=O)N1CC(C#N)C1 [Example I-18, 2-(1-Methyl-6-trifluoromethyl-1H-indazol-3-yl)-5H-pyrrolo[2,3-b]pyrazine-7-carboxylic acid [(R)-2-(3-cyano-azetidin-1-yl)-1-methyl-2-oxo-ethyl]-amide] | 8.94
10 | N#CC1CCN(C(=O)[C@H](NC(=O)c2c[nH]c3ncc(-n4ncc5cc(Cl)ccc54)nc23)C2CC2)CC1 [Example I-66, 2-(5-Chloro-indazol-1-yl)-5H-pyrrolo[2,3-b]pyrazine-7-carboxylic acid [(R)-2-(4-cyano-piperidin-1-yl)-1-cyclopropyl-2-oxo-ethyl]-amide] | 8.66
11 | Cn1nc(-c2cnc3[nH]cc(C(=O)N[C@@H](C(=O)N4CCC(C#N)CC4)C4CC4)c3n2)c2c1CCCC2 [Example I-10, 2-(1-Methyl-4,5,6,7-tetrahydro-1H-indazol-3-yl)-5H-pyrrolo[2,3-b]pyrazine-7-carboxylic acid [(R)-2-(4-cyano-piperidin-1-yl)-1-cyclopropyl-2-oxo-ethyl]-amide] | 8.82
